The values below are quoted from earlier work in patent publication US7732404B2 (priority 1999, dated 2010).

The data set deals with mice. As to conditions: mouse, in vivo, po.

Consider `CCOC(=O)C(C)O` (stereo not shown) [Ethyl lactate, 2-hydroxypropanoic acid ethyl ester], for which the LD50 entry is on record as “higher than 5 g/kg”.
